From patent US9365558B2 (BRISTOL-MYERS SQUIBB COMPANY, priority 2013, dated 2016)
pIC50: −log10 of the molar value.

Molecular target: Human MGAT-2 (Homo sapiens (Human), UniProt Q3SYC2)
Assay: MGAT LCMS Assay
Assay type: biochemical
Conditions: recombinant MGAT-2 membranes expressed in Sf9 cells; 100 μM 2-oleoylglycerol, 15 μM oleoyl-Coenzyme A; LC/MS of diolein; read-out: h-MGAT LCMS IC50
Experimental: Assay plates were run through a fully automated robotics system and shaken for 5 seconds every minute for a total 10 minutes. The reactions were then quenched with 120 μL of ice cold methanol containing 1 μg/mL 1,2-distearoyl-rac-glycerol as the internal standard. Plates were shaken for 2 minutes and spun down to remove protein precipitation. After the spin, samples were transferred to LC/MS compatible PCR plates. For LC/MS analysis, a ThermoFisher Surveyor pump, utilizing a Waters Symmetry C8, 50×2.1 mm column, was used for the chromatography of enzyme products. The buffer system consists of 0.1% formic acid in water with a mobile phase consisting 0.1% formic acid in methanol. The shallow gradient is 90-100% mobile phase in 0.2 min with a total run time of 2.3 min. The first 0.5 minutes of each injection was diverted to waste to eliminate the presence of Phosphate buffer in the enzymatic reaction. The column was run at 0.6 mL/min and a temperature of 65° C. Mass spectrometry analysis of the samples was performed on a ThermoFisher Quantum Triple quad utilizing APCI (+) as the mode of ionization. […] The ratio of Diolein to internal standard (Peak Area Ratio) is utilized to calculate IC50 values.

Sequence of Human MGAT-2 (Q3SYC2 whole entry): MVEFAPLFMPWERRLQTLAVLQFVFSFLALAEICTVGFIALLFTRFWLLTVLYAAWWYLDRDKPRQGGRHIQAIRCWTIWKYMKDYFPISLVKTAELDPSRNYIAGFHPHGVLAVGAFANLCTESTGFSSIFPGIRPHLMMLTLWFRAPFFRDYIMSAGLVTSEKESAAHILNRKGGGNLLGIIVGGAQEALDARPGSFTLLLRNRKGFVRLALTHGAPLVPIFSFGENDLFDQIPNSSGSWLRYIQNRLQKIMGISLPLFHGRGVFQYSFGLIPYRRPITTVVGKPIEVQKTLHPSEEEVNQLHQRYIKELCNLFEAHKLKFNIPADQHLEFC

Row | pIC50 | Compound
1 | 7.09 | O=C1N[C@@](c2ccc(OCCCC(F)(F)F)cc2F)(C(F)(F)F)CC(c2ccn(C3CC3)n2)=C1C(=O)NS(=O)(=O)C1CC1 [Example 46]
2 | 7.80 | Cc1ccc(C2=C(C(=O)NS(C)(=O)=O)C(=O)N[C@@](c3ccc(OCCCCCC(F)(F)F)cc3)(C(F)(F)F)C2)cc1 [Example 9]
3 | 7.59 | Cc1ccc(C2=C(C(=O)NS(C)(=O)=O)C(=O)N[C@@](c3ccc(OCc4ccccc4)cc3)(C(F)(F)F)C2)cc1 [Example 17]
4 | 7.96 | Cc1ccc(C2=C(C(=O)NS(=O)(=O)C3CC3)C(=O)N[C@@](C#CCCCCCC(F)(F)F)(C(F)(F)F)C2)cc1 [Example 33]
5 | 9.00 | CS(=O)(=O)NC(=O)C1=C(c2ccc(C(F)F)cc2)C[C@](c2ccc(OCCCCCC(F)(F)F)cc2F)(C(F)(F)F)NC1=O [Example 67]
6 | 7.89 | O=C1N[C@@](c2cnn(CCCCCC(F)(F)F)c2)(C(F)(F)F)CC(c2ccc3c(c2)CCCC3)=C1C(=O)NS(=O)(=O)C1CC1 [Example 58]
7 | 7.77 | CCS(=O)(=O)NC(=O)C1=C(c2ccc(C)cc2)C[C@](c2ccc(OCCCC(F)(F)F)cc2)(C(F)(F)F)NC1=O [Example 19]
8 | 7.43 | O=C1N[C@@](c2ccc(OCCCC(F)(F)F)cc2F)(C(F)(F)F)CC(c2ccn(CC3CCC3)n2)=C1C(=O)NS(=O)(=O)C1CC1 [Example 57]
9 | 8.10 | COc1ccc(C2=C(C(=O)NS(=O)(=O)C3CC3)C(=O)N[C@@](c3ccc(OCCCC(F)(F)F)cc3)(C(F)(F)F)C2)cc1 [Example 27]
10 | 7.60 | Cc1ccc(C2=C(C(=O)NS(=O)(=O)N(C)C)C(=O)N[C@@](c3ccc(OCCCCCC(F)(F)F)cc3)(C(F)(F)F)C2)cc1 [Example 32]
11 | 7.08 | Cc1ccc(C2=C(C(=O)NS(=O)(=O)c3ccccc3)C(=O)N[C@@](c3ccc(OCCCC(F)(F)F)cc3)(C(F)(F)F)C2)cc1 [Example 29]
12 | 7.89 | O=C1N[C@@](c2ccc(OCCCC(F)(F)F)cc2F)(C(F)(F)F)CC(c2ccn(CC3CC3)n2)=C1C(=O)NS(=O)(=O)C1CC1 [Example 56]
13 | 8.40 | CS(=O)(=O)NC(=O)C1=C(c2ccc(C3CC3)s2)C[C@](c2ccc(OCCCC(F)(F)F)cc2F)(C(F)(F)F)NC1=O [Example 65]
14 | 8.70 | O=C1N[C@@](c2ccc(CCCCC(F)(F)F)cc2)(C(F)(F)F)CC(c2ccn(CC3CC3)n2)=C1C(=O)NS(=O)(=O)C1CC1 [Example 73]
15 | 8.30 | CCc1ccc(C2=C(C(=O)NS(=O)(=O)C3CC3)C(=O)N[C@@](c3ccc(OCCCCCC(F)(F)F)cc3)(C(F)(F)F)C2)s1 [Example 10]
16 | 7.57 | CC(C)(C)c1ccc(C2=C(C(=O)NS(C)(=O)=O)C(=O)N[C@](C)(c3ccc(OCCCC(F)(F)F)cc3)C2)cc1 [Example 85]
17 | 8.70 | CCCCCCCc1cnc([C@]2(C(F)(F)F)CC(c3ccc(C)cc3)=C(C(=O)NS(=O)(=O)C3CC3)C(=O)N2)s1 [Example 40]
18 | 7.92 | CS(=O)(=O)NC(=O)C1=C(c2ccc(C(F)F)cc2)C[C@](c2ccc(OCCCC(F)(F)F)cc2F)(C(F)(F)F)NC1=O [Example 71]
19 | 7.47 | C[C@@]1(c2ccc(OCCCC(F)(F)F)cc2)CC(c2ccn(CC3CC3)n2)=C(C(=O)NS(=O)(=O)C2CC2)C(=O)N1 [Example 60]
20 | 7.62 | CN(C)c1ccc(C2=C(C(=O)NS(C)(=O)=O)C(=O)N[C@@](c3ccc(OCCCC(F)(F)F)cc3)(C(F)(F)F)C2)cc1 [Example 25]

Row | pIC50 | Compound
21 | 8.22 | O=C1N[C@@](c2ccc(OCCCCCC(F)(F)F)cc2F)(C(F)(F)F)CC(c2ccn(C3CC3)n2)=C1C(=O)NS(=O)(=O)C1CC1 [Example 89]
22 | 8.40 | [2H]C1([2H])C(c2ccc(OC)cc2)=C(C(=O)NS(=O)(=O)C2CC2)C(=O)N[C@@]1(c1ccc(OCCCCCC(F)(F)F)cc1F)C(F)(F)F [Example 99]
23 | 7.06 | O=C1N[C@@](c2cnn(CC/C=C/CCC(F)(F)F)c2)(C(F)(F)F)CC(c2ccc3c(c2)CCCC3)=C1C(=O)NS(=O)(=O)C1CC1 [Example 95]
24 | 9.00 | CS(=O)(=O)NC(=O)C1=C(c2ccc(C3CC3)cc2)C[C@](c2ccc(OCCCCCC(F)(F)F)cc2F)(C(F)(F)F)NC1=O [Example 68]
25 | 8.40 | Cc1ccc(C2=C(C(=O)NS(=O)(=O)C3CC3)C(=O)N[C@@](c3ccc(OCCCCCC(F)(F)F)cc3F)(C(F)(F)F)C2)cc1 [Example 6]
26 | 8.40 | CCCCCCC#C[C@]1(C(F)(F)F)CC(c2ccc(C)cc2)=C(C(=O)NS(C)(=O)=O)C(=O)N1 [Example 15]
27 | 7.28 | COc1ccc(C2=C(C(=O)NS(C)(=O)=O)C(=O)N[C@@](c3ccc(OCCCCCC(F)(F)F)cc3F)(C(F)(F)F)C2)cc1 [Example 36]
28 | 8.22 | CS(=O)(=O)NC(=O)C1=C(c2ccn(C3CC3)n2)C[C@](c2ccc(OCCCCCC(F)(F)F)cc2)(C(F)(F)F)NC1=O [Example 83]
29 | 7.72 | CC(C)(C)c1ccc(C2=C(C(=O)NS(C)(=O)=O)C(=O)N[C@@](c3ccc(OCCCC(F)(F)F)cc3)(C(F)(F)F)C2)cc1 [Example 26]
30 | 6.78 | CS(=O)(=O)NC(=O)C1=C(c2ccn(C3CC3)n2)C[C@](c2ccc(OCCCCCC(F)(F)F)cc2F)(C(F)(F)F)NC1=O [Example 86]
31 | 8.52 | O=C1N[C@@](c2ccc(OCCCCCC(F)(F)F)cc2)(C(F)(F)F)CC(c2ccn(CC3CC3)n2)=C1C(=O)NS(=O)(=O)C1CC1 [Example 79]
32 | 7.01 | O=C1N[C@@](c2ccc(OCCCC(F)(F)F)cc2)(C(F)(F)F)CC(c2ccn(C3CC3)n2)=C1C(=O)NS(=O)(=O)C1CC1 [Example 87]
33 | 8.52 | COc1ccc(C2=C(C(=O)NS(=O)(=O)C3CC3)C(=O)N[C@@](c3ccc(OCCCCCC(F)(F)F)cc3F)(C(F)(F)F)C2)cc1 [Example 22]
34 | 7.05 | CCn1ccc(C2=C(C(=O)NS(=O)(=O)C3CC3)C(=O)N[C@@](c3ccc(CCCCC(F)(F)F)cc3F)(C(F)(F)F)C2)n1 [Example 53]
35 | 8.40 | O=C1N[C@@](c2cnn(CCCCCCC(F)(F)F)c2)(C(F)(F)F)CC(c2ccc3c(c2)CCCC3)=C1C(=O)NS(=O)(=O)C1CC1 [Example 94]
36 | 7.92 | CCc1ccc(C2=C(C(=O)NS(C)(=O)=O)C(=O)N[C@@](c3ccc(OCCCC(F)(F)F)cc3)(C(F)(F)F)C2)s1 [Example 7]
37 | 6.94 | Cc1ccc(C2=C(C(=O)NS(C)(=O)=O)C(=O)N[C@](C)(CCC(C)C)C2)cc1 [Example 24]
38 | 8.70 | O=C1N[C@@](c2ccc(OCCCC(F)(F)F)cc2F)(C(F)(F)F)CC(c2ncc(C3CC3)s2)=C1C(=O)NS(=O)(=O)C1CC1 [Example 70]
39 | 7.77 | O=C1N[C@@](c2ccc(OCCCC(F)(F)F)cc2)(C(F)(F)F)CC(c2ccn(CC3CCC3)n2)=C1C(=O)NS(=O)(=O)C1CC1 [Example 74]

Row | Compound | pIC50
40 | CC(C)n1ccc(C2=C(C(=O)NS(=O)(=O)C3CC3)C(=O)N[C@@](c3ccc(OCCCC(F)(F)F)cc3F)(C(F)(F)F)C2)n1 [Example 42] | 8.10
